Each structure is given as a SMILES string. ≈ marks a conversion by molar mass, not a printed value.

What all share (assay): liquid turbidimetric microtiter MIC determination
Type in all cases: cell-based

Assay [1] relates to Steptococcus viridans CL 2943. Particulars: brain heart infusion broth. An excerpt: (§1) The antibacterial activities of compounds (IV), (X) against a panel of aerobic Gram positive and negative bacteria is shown in the following Table. The assay employs a liquid turbidimetric microtiter method for the determination of the minimum inhibitory concentration (MIC) in brain heart infusion broth. […] The MIC is generally not an absolute value but rather a concentration range that falls within a two-fold dilution limit. Generally twelve two-fold dilutions of the test compound are employed with the initial concentration set at 128 mcg/ml.

In assay [2] the test system is Klebsiella pneumoniae MB 4005. Particulars: MB4005, brain heart infusion broth.
From the text: as §1

Assay [3] concerns Streptococcus pyogenes MB 2874. To be noted: MB2874, brain heart infusion broth.
From the text: as §1

Assay [4] has as its system Streptococcus pneumoniae CL 2883. To be noted: CL2883, brain heart infusion broth.
From the text: as §1

Assay [5] has as its system Enterococcus faecalis MB 5407. To be noted: MB5407, brain heart infusion broth.
From the text: as §1

Assay [6] has as its system Enterococcus faecium MB 5416. To be noted: MB5416, brain heart infusion broth.
From the text: as §1

Assay [7] concerns Pseudomonas stutzeri MB 1231. To be noted: Stutzerimonas stutzeri, MB1231, brain heart infusion broth.
From the text: as §1

The next assay has as its system Escherichia coli MB 4926. Particulars: MB4926, brain heart infusion broth.
From the text: as §1

The test system of assay [8] is Streptococcus agalactiae CL 1343. Particulars: CL1343, brain heart infusion broth.
From the text: as §1

Assay [9] deals with Staphylococcus haemolyticus MB 5412. Particulars: MB5412, brain heart infusion broth.
From the text: as §1

Another assay relates to Escherichia coli MB 2884. Particulars: MB2884, brain heart infusion broth.
From the text: as §1

The test system of assay [10] is Staphylococcus epidermidis MB 5414. To be noted: MB5414, brain heart infusion broth.
From the text: as §1

The subject of assay [11] is Staphylococcus aureus MB 2865. To be noted: MB2865, brain heart infusion broth.
From the text: as §1

For assay [12], the system named is Yersinia enterocoltica CL 1598. To be noted: CL1598, brain heart infusion broth.
From the text: as §1

For assay [13], the system named is Streptococcus pyogenes MB 54061. Particulars: MB54061, brain heart infusion broth.
From the text: as §1

For the compound `CC[C@H]1OC(=O)[C@H](C)[C@@H](O[C@H]2C[C@@](C)(OC)[C@@H](O)[C@H](C)O2)[C@H](C)[C@@H](O[C@@H]2O[C@H](C)C[C@H](N(C)C)[C@H]2O)[C@](C)(O)C[C@@H](C)NC[C@H](C)[C@@H](O)[C@]1(C)O` [(IV), 9-Deoxo-8a-aza-8a-homoerythromycin A], the MIC amounted to 8 µg/mL (≈ 10.9 µM) in assay [1]; 64 µg/mL (≈ 87.1 µM) in assay [2]; 0.06 µg/mL (≈ 0.0816 µM) in assay [3]; 0.06 µg/mL (≈ 0.0816 µM) in [4]; 8 µg/mL (≈ 10.9 µM) in [5]; 0.25 µg/mL (≈ 0.34 µM) in assay [6]. Moreover, the MIC in assay [7] was ≤ 0.06 µg/mL; with Escherichia coli MB 4926, 2 µg/mL (≈ 2.72 µM); in assay [8], ≤ 0.06 µg/mL; in [9] it was 0.5 µg/mL (≈ 0.68 µM); with Escherichia coli MB 2884 it was 4 µg/mL (≈ 5.44 µM); in assay [10], 1 µg/mL (≈ 1.36 µM). Also, the values for the MIC in [11], in assay [12] and in assay [13] were 0.5 µg/mL (≈ 0.68 µM), 8 µg/mL (≈ 10.9 µM) and 128 µg/mL (≈ 174 µM), respectively.

For `CC[C@H]1OC(=O)[C@H](C)[C@@H](O[C@H]2C[C@@](C)(OC)[C@@H](O)[C@H](C)O2)[C@H](C)[C@@H](O[C@@H]2O[C@H](C)C[C@H](N(C)C)[C@H]2O)[C@](C)(O)C[C@@H](C)N(C)C[C@H](C)[C@@H](O)[C@]1(C)O` [(X), 9-Deoxo-8a-methyl-8a-aza-8a-homoerythromycin A], the MIC in assay [1] was 1 µg/mL (≈ 1.34 µM); in [2], 2 µg/mL (≈ 2.67 µM); in [3], ≤ 0.06 µg/mL; in assay [4], ≤ 0.06 µg/mL; in assay [5] it was 4 µg/mL (≈ 5.34 µM); in assay [6], 0.25 µg/mL (≈ 0.334 µM). Also, the MIC was ≤ 0.06 µg/mL in assay [7]; ≤ 0.06 µg/mL against Escherichia coli MB 4926; ≤ 0.06 µg/mL in [8]; 0.5 µg/mL (≈ 0.668 µM) in assay [9]; 1 µg/mL (≈ 1.34 µM) against Escherichia coli MB 2884; 1 µg/mL (≈ 1.34 µM) in assay [10]. Further, the figures for the MIC in assay [11], in assay [12] and in assay [13] were 0.5 µg/mL (≈ 0.668 µM), 2 µg/mL (≈ 2.67 µM) and 128 µg/mL (≈ 171 µM), respectively.
